Measured values reported in patent US20250122169A1, “PPARG INVERSE AGONISTS AND USES THEREOF” (Flare Therapeutics Inc., priority 2021, published 2025).

Tests used:
[1] = molecular target: T1, PPARG/RXRA LBD heterodimer (Homo sapiens, UniProt P37231); assay: PPARγ-NCOR1 recruitment assay (TR-FRET); type: biochemical; settings: for Emax: 3 h, maximal extent, T0070907 defined as 100%, DMSO 0%, read-out: % NCOR recruitment relative to T907; for EC50: TR-FRET, NCOR1 ID2 peptide, 80 nM Rosiglitazone, 3 hours, read-out: PPARG-NCOR recruitment assay EC50
T1 construct: 2 nM WT PPARG LBD (E. coli expressed, His-TEV-Q203-Y477); fused on or other part: N-terminal His tag with TEV site on the PPARG LBD
Method: Compound potency (EC50) and maximal extent of NCOR1 recruitment to PPARG were assessed a TR-FRET binding assay measuring association of a biotinylated NCOR1 ID2 peptide (Biotin-[…]-amide) to PPARG/RXRA LBD heterodimer.
T1 sequence (O75376 2251-2273 limits assumed, one chain of several, further chain): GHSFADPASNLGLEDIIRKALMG

[2] = tested on: ANGPTL4, a PPARG target gene, in HT1197 (RXRA S427F mutation) cells; assay: Bladder cancer pharmacodynamic assay, HT1197 cell assay (qPCR of PPARG target gene ANGPTL4); type: cell-based; settings: Homo sapiens, read-out: % inhibition of ANGPTL4 @ 100 nM, 100 nM compound, 24 hours, relative to DMSO control
Method: Quantitative PCR was performed using an ABI QuantStudio 7 Flex Reaction system. Data were analyzed and reported relative to DMSO control using the comparative Ct method (ΔΔCt).

[3] = molecular target: T2, PPARG/RXRA LBD heterodimer (Homo sapiens, UniProt P37231); assay: PPARγ-MED1 blockade assay (TR-FRET); type: biochemical; settings: for EC50: TR-FRET, MED1 LxxLL peptide, 80 nM Rosiglitazone, 3 hours; for Emax: maximal extent, GW9662 defined as 100%, DMSO 0%, read-out: % MED1 blockade relative to GW9662
T2 construct: His-TEV-Q203-Y477; Uniprot ID P37231-2; made in house; host or cells: E. coli
T2 sequence (P37231 203-477 isoform P37231-2): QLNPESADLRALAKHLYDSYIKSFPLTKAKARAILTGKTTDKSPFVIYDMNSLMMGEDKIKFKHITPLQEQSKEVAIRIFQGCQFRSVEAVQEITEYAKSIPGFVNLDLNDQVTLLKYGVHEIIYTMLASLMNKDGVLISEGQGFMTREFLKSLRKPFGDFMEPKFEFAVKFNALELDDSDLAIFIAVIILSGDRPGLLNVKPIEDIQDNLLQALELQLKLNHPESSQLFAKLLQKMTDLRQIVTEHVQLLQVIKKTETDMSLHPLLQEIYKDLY
T2 sequence (P19793 228-462 partner limits assumed): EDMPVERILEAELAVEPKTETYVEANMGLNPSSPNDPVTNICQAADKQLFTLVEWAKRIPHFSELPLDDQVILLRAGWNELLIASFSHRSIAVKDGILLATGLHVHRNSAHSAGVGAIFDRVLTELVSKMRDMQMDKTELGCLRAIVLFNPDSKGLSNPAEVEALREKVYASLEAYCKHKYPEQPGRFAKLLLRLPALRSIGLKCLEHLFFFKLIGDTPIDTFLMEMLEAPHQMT
Method: Compound potency (IC50) and maximal extent of MED1 repulsion to PPARG were assessed a TR-FRET binding assay measuring association of a biotinylated MED1 LxxLL peptide (Biotin-[…]-amide) to PPARG/RXRA LBD heterodimer.

Row | Emax [1] [%] | EC50 [1] [nM] | EC50 [3] [nM] | Emax [3] [%] | Compound | inhibition at 0.1 µM [2] [%]
1 | > 100 | < 10 | < 10 | > 100 | CN(C)C(=O)[C@H]1CCN(c2c(F)cc3[nH]c(-c4cc(C#N)ncc4Cl)cc(=O)c3c2F)C1 [Example 26, (S)-1-(2-(5-chloro-2-cyanopyridin-4-yl)-5,7-difluoro-4-oxo-1,4-dihydroquinolin-6-yl)-N,N-dimethylpyrrolidine-3-carboxamide] | 85
2 | > 100 | 10 to 100 | 10 to 100 | > 100 | C[S+]([O-])c1cnc(C#N)cc1-c1cc(=O)c2c(F)cc(F)cc2[nH]1 (stereo not shown) [Example 28, 4-(5,7-difluoro-4-oxo-1,4-dihydroquinolin-2-yl)-5-(methylsulfinyl)picolinonitrile] | 79
3 | > 100 | < 10 | < 10 | > 100 | N#Cc1ncc(Cl)c(-c2cc(=O)c3c(F)cc(F)cc3[nH]2)n1 [Example 33, 5-chloro-4-(5,7-difluoro-4-oxo-1,4-dihydroquinolin-2-yl)pyrimidine-2-carbonitrile] | 31

Further lines, the molecule ahead of its results:

Row | Compound | Emax [1] [%] | EC50 [1] [nM] | EC50 [3] [nM] | Emax [3] [%] | inhibition at 0.1 µM [2] [%]
4 | CN(C)C(=O)[C@@H]1CCCN(c2c(F)cc3[nH]c(-c4cc(C#N)ncc4Cl)cc(=O)c3c2F)C1 [Example 22, (R)-1-(2-(5-chloro-2-cyanopyridin-4-yl)-5,7-difluoro-4-oxo-1,4-dihydroquinolin-6-yl)-N,N-dimethylpiperidine-3-carboxamide] | > 100 | < 10 | 10 to 100 | > 100 | 91
5 | CN(C)C(=O)[C@H]1CCCN(c2c(F)cc3[nH]c(-c4cc(C#N)ncc4Cl)cc(=O)c3c2F)C1 [Example 23, (S)-1-(2-(5-chloro-2-cyanopyridin-4-yl)-5,7-difluoro-4-oxo-1,4-dihydroquinolin-6-yl)-N,N-dimethylpiperidine-3-carboxamide] | > 100 | < 10 | < 10 | > 100 | 76
6 | CN1CCN(c2c(F)cc3[nH]c(-c4cc(C#N)ncc4Cl)cc(=O)c3c2F)CC1=O [Example 24, 5-chloro-4-(5,7-difluoro-6-(4-methyl-3-oxopiperazin-1-yl)-4-oxo-1,4-dihydroquinolin-2-yl)picolinonitrile] | > 100 | 10 to 100 | 10 to 100 | > 100 | 87
7 | CN(C)C(=O)[C@@H]1CCN(c2c(F)cc3[nH]c(-c4cc(C#N)ncc4Cl)cc(=O)c3c2F)C1 [Example 25, (R)-1-(2-(5-chloro-2-cyanopyridin-4-yl)-5,7-difluoro-4-oxo-1,4-dihydroquinolin-6-yl)-N,N-dimethylpyrrolidine-3-carboxamide] | > 100 | < 10 | < 10 | > 100 | 86
8 | N#Cc1cnc(Cl)c(-c2cc(=O)c3c(F)cc(F)cc3[nH]2)c1 [Example 27, 6-chloro-5-(5,7-difluoro-4-oxo-1,4-dihydroquinolin-2-yl)nicotinonitrile] | > 100 | 10 to 100 | 10 to 100 | > 100 | 70
9 | CS(=O)(=O)c1cnc(C#N)cc1-c1cc(=O)c2ccc(Cl)cc2[nH]1 [Example 30, 4-(7-chloro-4-oxo-1,4-dihydroquinolin-2-yl)-5-(methylsulfonyl)picolinonitrile] | > 100 | < 10 | < 10 | > 100 | 88
10 | CS(=O)(=O)c1cnc(C#N)cc1-c1cc(=O)c2c(F)cc(Cl)cc2[nH]1 [Example 31, 4-(7-chloro-5-fluoro-4-oxo-1,4-dihydroquinolin-2-yl)-5-(methylsulfonyl)picolinonitrile] | > 100 | < 10 | < 10 | > 100 | 86
11 | CS(=O)(=O)c1ccc(C#N)nc1-c1cc(=O)c2c(F)cc(F)cc2[nH]1 [Example 32, 6-(5,7-difluoro-4-oxo-1,4-dihydroquinolin-2-yl)-5-(methylsulfonyl)picolinonitrile] | > 100 | < 10 | < 10 | > 100 | 87
